Results taken from patent publication US20140057895A1, “INDAZOLE- AND PYRROLOPYRIDINE-DERIVATIVE AND PHARMACEUTICAL USE THEREOF” (priority 2011, published 2014).
pEC50, pIC50: −log10 of the molar value.

How the values were obtained:
human 5-HT4b receptor = target: T1, human 5-HT4b receptor (Homo sapiens, UniProt Q13639); assay: Test Example 4: Serotonin 4 (5-HT4) receptor agonist activity assay, cAMP HTRF in CHO cells (Table 100); format: cell-based; settings: mean value; for Emax: CHO, 0.25 h, intrinsic activity, maximal activity of 5-HT defined as 100%, read-out: IA (%); for pEC50: concentration showing 50% of IA
T1 construct: expressed in transfected cells; host or cells: CHO cells (G418 selection)
Outline: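 Read-out is HTRF cAMP (time-resolved fluorescence 620/665 nm after 1 h RT with cAMP-cryptate and cAMP-d2), from recombinant CHO cells bearing human 5-HT4b treated with compound 15 min at 31° C. in Hanks/HEPES buffer pH 7.4. IA (%) scaled to peak 5-HT effect over 10^−11–10^−7 M; EC50 is concentration giving half that IA.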

[1] = target: T2, Human 5-HT4 receptor (5-HT4b) (Homo sapiens, UniProt Q13639); assay: Test Example 3: Human 5-HT4 receptor binding assay, membranes of CHO-K1 cells stably expressing 5-HT4b receptors (Table 99); settings: mean value of each group
T2 construct: expressed in transfected cells; membrane preparation
Outline: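 Radioligand displacement: [3H]-GR113808 (0.1 nM) bound to CHO-K1 5-HT4b membranes for 30 min at 37 °C in Hepes buffer (50 mM, pH 7.4). Specific binding is total minus that with 30 μM serotonin; filter-bound radioactivity counted, IC50 derived from percent inhibition.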

T1 sequence (Q13639 whole entry): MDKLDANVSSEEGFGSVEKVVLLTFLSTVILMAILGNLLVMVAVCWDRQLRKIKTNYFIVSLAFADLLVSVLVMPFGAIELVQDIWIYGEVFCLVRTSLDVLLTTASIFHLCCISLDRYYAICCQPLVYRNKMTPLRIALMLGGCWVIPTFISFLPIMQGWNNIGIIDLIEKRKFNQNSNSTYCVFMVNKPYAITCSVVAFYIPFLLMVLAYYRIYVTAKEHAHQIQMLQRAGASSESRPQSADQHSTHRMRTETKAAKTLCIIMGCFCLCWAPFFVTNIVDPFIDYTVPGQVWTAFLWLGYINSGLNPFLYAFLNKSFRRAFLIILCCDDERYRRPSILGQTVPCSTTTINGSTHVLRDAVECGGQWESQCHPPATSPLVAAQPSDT
T2 sequence (Q13639 whole entry): as above

Structure (SMILES) | Emax (human 5-HT4b receptor) [%] | pEC50 (human 5-HT4b receptor) | pIC50 [1]
CC(C)c1nn(-c2noc(C3CCN(C4C5CCC4CN(C(=O)CO)C5)CC3)n2)c2c(F)cccc12 (stereo not drawn) [Example 534, 1-[(8-anti)-8-(4-(3-[7-fluoro-3-(propan-2-yl)-1H-indazol-1-yl]-1,2,4-oxadiazol-5-yl}piperidin-1-yl)-3-azabicyclo[3.2.1]oct-3-yl]-2-hydroxyethanone] | 104 | 8.24 | 7.37
CC(=O)N1CCC[C@@H]1CN1CC[C@H](Cc2nc(-n3nc(C(C)C)c4cccc(F)c43)no2)C1 [Example 499, 1-[(2R)-2-{[(3R)-3-({3-[7-fluoro-3-(propan-2-yl)-1H-indazol-1-yl]-1,2,4-oxadiazol-5-yl}methyl)pyrrolidin-1-yl]methyl}pyrrolidin-1-yl]ethanone] | 82 | 8.11 | 7.31
CC(C)c1nn(-c2noc([C@H]3C[C@@H](NCC4CCN(S(C)(=O)=O)CC4)C3)n2)c2c(F)cccc12 [Example 594, cis-3-{3-[7-fluoro-3-(propan-2-yl)-1H-indazol-1-yl]-1,2,4-oxadiazol-5-yl}-N-{[1-(methylsulfonyl)piperidin-4-yl]methyl}cyclobutanamine] | 106 | 8.64 | > 7.70
CC(=O)N1CC(CN2CC[C@H](Cc3nc(-n4nc(C(C)C)c5cccc(F)c54)no3)C2)C1 [Example 501, 1-(3-{[(3R)-3-({3-[7-fluoro-3-(propan-2-yl)-1H-indazol-1-yl]-1,2,4-oxadiazol-5-yl}methyl)pyrrolidin-1-yl]methyl}azetidin-1-yl)ethanone] | 84 | 8.46 | > 7.70
CC(C)c1nn(-c2noc(C3CCN(C4(C)CCN(C(=O)CO)CC4)CC3)n2)c2c(F)cccc12 [Example 537, 1-(4-{3-[7-fluoro-3-(propan-2-yl)-1H-indazol-1-yl]-1,2,4-oxadiazol-5-yl}-4′-methyl-1,4′-bipiperidin-1′-yl)-2-hydroxyethanone] | 111 | 8.89 | > 7.70
CC(C)c1nn(-c2noc(C[C@H]3CCN(C[C@H]4CCCN4C(=O)CO)C3)n2)c2c(F)cccc12 [Example 541, 1-[(2R)-2-{[(3R)-3-({3-[7-fluoro-3-(propan-2-yl)-1H-indazol-1-yl]-1,2,4-oxadiazol-5-yl}methyl)pyrrolidin-1-yl]methyl}pyrrolidin-1-yl]-2-hydroxyethanone] | 79 | 8.05 | 7.45
CC(C)c1nn(-c2noc(C[C@H]3CCN(CC4CN(C(=O)CO)C4)C3)n2)c2c(F)cccc12 [Example 542, 1-(3-{[(3R)-3-({3-[7-fluoro-3-(propan-2-yl)-1H-indazol-1-yl]-1,2,4-oxadiazol-5-yl}methyl)pyrrolidin-1-yl]methyl}azetidin-1-yl)-2-hydroxyethanone] | 90 | 8.48 | > 7.70
CC(C)c1nn(-c2noc(C3CCN(C[C@H]4CCN(S(C)(=O)=O)C4)CC3)n2)c2c(F)cccc12 [Example 586, 7-fluoro-1-[5-(1-{[(3R)-1-(methylsulfonyl)pyrrolidin-3-yl]methyl}piperidin-4-yl)-1,2,4-oxadiazol-3-yl]-3-(propan-2-yl)-1H-indazole] | 105 | 8.66 | > 7.70
CC(C)c1nn(-c2noc(C[C@@H]3CCN(C[C@H]4CCCN4S(C)(=O)=O)C3)n2)c2c(F)cccc12 [Example 512, 7-fluoro-1-(5-{[(3S)-1-{[(2R)-1-(methylsulfonyl)pyrrolidin-2-yl]methyl}pyrrolidin-3-yl]methyl}-1,2,4-oxadiazol-3-yl)-3-(propan-2-yl)-1H-indazole] | 30 | 8.37 | > 7.70
CC(C)c1nn(-c2noc(C[C@@H]3CCN(C[C@@H]4CCN(C(=O)CO)C4)C3)n2)c2c(F)cccc12 [Example 549, 1-[(3S)-3-{[(3S)-3-({3-[7-fluoro-3-(propan-2-yl)-1H-indazol-1-yl]-1,2,4-oxadiazol-5-yl}methyl)pyrrolidin-1-yl]methyl}pyrrolidin-1-yl]-2-hydroxyethanone] | 91 | 8.25 | > 7.70

Second part, the molecule after the results:

Emax (human 5-HT4b receptor) [%] | pEC50 (human 5-HT4b receptor) | pIC50 [1] | Structure (SMILES)
104 | 8.60 | > 7.70 | CC(C)c1nn(-c2noc(C3CCN(C4(C)CCN(C(=O)N(C)C)CC4)CC3)n2)c2c(F)cccc12 [Example 489, 4-{3-[7-fluoro-3-(propan-2-yl)-1H-indazol-1-yl]-1,2,4-oxadiazol-5-yl}-N,N,4′-trimethyl-1,4′-bipiperidine-1′-carboxamide]
105 | 7.89 | > 7.70 | CC(C)c1nn(-c2noc([C@H]3CC[C@@H](NC4CCN(S(C)(=O)=O)C4)CC3)n2)c2c(F)cccc12 (relative stereo) [Example 616, N-(cis-4-{3-[7-fluoro-3-(propan-2-yl)-1H-indazol-1-yl]-1,2,4-oxadiazol-5-yl}cyclohexyl)-1-(methylsulfonyl)pyrrolidin-3-amine]
75 | 8.82 | > 7.70 | CCc1nn(-c2noc(C3CCN(C4(C)CCN(C(=O)N(C)C)CC4)CC3)n2)c2c(F)cccc12 [Example 493, 4-[3-(3-ethyl-7-fluoro-1H-indazol-1-yl)-1,2,4-oxadiazol-5-yl]-N,N,4′-trimethyl-1,4′-bipiperidine-1′-carboxamide]
70 | 8.46 | > 7.70 | CC(C)c1nn(-c2noc(C[C@H]3CCN(CC4CN(S(C)(=O)=O)C4)C3)n2)c2c(F)cccc12 [Example 502, 7-fluoro-1-(5-{[(3R)-1-{[1-(methylsulfonyl)azetidin-3-yl]methyl}pyrrolidin-3-yl]methyl}-1,2,4-oxadiazol-3-yl)-3-(propan-2-yl)-1H-indazole]
58 | 8.33 | > 7.70 | CC(C)c1nn(-c2noc(C[C@H]3CCN(C[C@H]4CCN(C(=O)CO)C4)C3)n2)c2c(F)cccc12 [Example 544, 1-[(3R)-3-{[(3R)-3-({3-[7-fluoro-3-(propan-2-yl)-1H-indazol-1-yl]-1,2,4-oxadiazol-5-yl}methyl)pyrrolidin-1-yl]methyl}pyrrolidin-1-yl]-2-hydroxyethanone]
104 | 8.08 | 7.61 | CC(C)c1nn(-c2noc([C@H]3CC[C@@H](NCCC4CN(S(C)(=O)=O)C4)CC3)n2)c2c(F)cccc12 [Example 617, cis-4-{3-[7-fluoro-3-(propan-2-yl)-1H-indazol-1-yl]-1,2,4-oxadiazol-5-yl}-N-{2-[1-(methylsulfonyl)azetidin-3-yl]ethyl}cyclohexanamine]
98 | 8.30 | > 7.70 | CC(=O)N1CC[C@@H](CN2CC[C@H](Cc3nc(-n4nc(C(C)C)c5cccc(F)c54)no3)C2)C1 [Example 503, 1-[(3S)-3-{[(3R)-3-({3-[7-fluoro-3-(propan-2-yl)-1H-indazol-1-yl]-1,2,4-oxadiazol-5-yl}methyl)pyrrolidin-1-yl]methyl}pyrrolidin-1-yl]ethanone]
32 | 8.21 | > 7.70 | CC(C)c1nn(-c2noc([C@H]3CC[C@@H](NCC4CCN(S(C)(=O)=O)CC4)CC3)n2)c2c(F)cccc12 [Example 618, cis-4-{3-[7-fluoro-3-(propan-2-yl)-1H-indazol-1-yl]-1,2,4-oxadiazol-5-yl}-N-{[1-(methylsulfonyl)piperidin-4-yl]methyl}cyclohexanamine]
72 | 8.68 | > 7.70 | CCc1nn(-c2noc(C3CCN(C4(C)CCN(C(=O)COC)CC4)CC3)n2)c2c(F)cccc12 [Example 494, 1-{4-[3-(3-ethyl-7-fluoro-1H-indazol-1-yl)-1,2,4-oxadiazol-5-yl]-4′-methyl-1,4′-bipiperidin-1′-yl}-2-methoxyethanone]
91 | 8.43 | > 7.70 | CCc1nn(-c2noc(C3CCN(C[C@@H]4CCN(C(=O)CO)C4)CC3)n2)c2c(F)cccc12 [Example 582, 1-[(3S)-3-({4-[3-(3-ethyl-7-fluoro-1H-indazol-1-yl)-1,2,4-oxadiazol-5-yl]piperidin-1-yl}methyl)pyrrolidin-1-yl]-2-hydroxyethanone]
51 | 8.02 | > 7.70 | CC(=O)N1CCC[C@@H]1CN1CC[C@@H](Cc2nc(-n3nc(C(C)C)c4cccc(F)c43)no2)C1 [Example 511, 1-[(2R)-2-{[(3S)-3-({3-[7-fluoro-3-(propan-2-yl)-1H-indazol-1-yl]-1,2,4-oxadiazol-5-yl}methyl)pyrrolidin-1-yl]methyl}pyrrolidin-1-yl]ethanone]
92 | 8.43 | > 7.70 | CC(C)c1nn(-c2noc(C[C@H]3CCN(C[C@@H]4CCN(C(=O)CO)C4)C3)n2)c2c(F)cccc12 [Example 543, 1-[(3S)-3-{[(3R)-3-({3-[7-fluoro-3-(propan-2-yl)-1H-indazol-1-yl]-1,2,4-oxadiazol-5-yl}methyl)pyrrolidin-1-yl]methyl}pyrrolidin-1-yl]-2-hydroxyethanone]
36 | 8.47 | > 7.70 | CC(C)c1nn(-c2noc(C[C@H]3CCN(C[C@@H]4CCCN4S(C)(=O)=O)C3)n2)c2c(F)cccc12 [Example 498, 7-fluoro-1-(5-{[(3R)-1-{[(2S)-1-(methylsulfonyl)pyrrolidin-2-yl]methyl}pyrrolidin-3-yl]methyl}-1,2,4-oxadiazol-3-yl)-3-(propan-2-yl)-1H-indazole]
